Columns and labels:
AML12 cells = assay: [2H7]glucose consumption, lactate isotopomer and HDO production in cell media by 1H/2H-NMR; assay type: cell-based; conditions: for concentration of consumed [2H7]glucose / produced lactate isotopomers and HDO in cell media: 5.5 mM [2H7]glucose; for number of μmol of 2H: 2H mass balance
Experimental: (§1) HUH-7 or AML12 cell lines were cultured in a complete growth medium made up of Dulbecco's Modified Eagle Medium (DMEM) with 10% v/v FBS, 10,000 units/mL penicillin, 10,000 μg/mL streptomycin, 25 μg/mL amphotericin B and 5.5 mM [^2H7]glucose. Cell lines were maintained at 37° C. in a 5% CO2 in air atmosphere in an air-jacketed incubator (Heracell Vios 160i, Thermo Scientific, Waltham, Mass.). Growth media was replaced every 3 days, and subcultured 1:5 at 80% confluence. 25 cm^2 cell culture plates, containing 15 million HUH-7 or AML12 cells at 70-80% confluence, were washed once with warm PBS and incubated with 4 mL each of DMEM with deuterated tracer for 5h, withdrawing 100 μL aliquots at 20 min, 1h, 2h, and 5h.
(§2) No extraction was performed on the cell media samples. Pyrazine and pyrazine-D4 were mixed to achieve 5 mM concentration of each of the standards in each cell media samples of HUH-7 and AML12 cells. Pyrazine and pyrazine-D4 served as an internal standard to quantify the lactate isotopomers from ^1H-NMR data and HDO as well as residual [^2H7]glucose from ^2H-NMR data respectively. 40 μL of cell medium was transferred into 1.7 mm NMR tubes for NMR analysis. ^1H-NMR Spectroscopy
(§3) All NMR spectra were recorded on a 600.23 MHz NMR, equipped with a 1.7 mm TCI CryoProbe and Avance Neo Console (Bruker Biospin). All NMR experiments were set up in the lock off followed by sweep off mode. ^2H-decoupling off and on ^1H-NMR spectra were acquired with a sequence that alternated decoupling with each scan. Relaxation delay (d1) of 1.5s and acquisition time (AQ) of 2s (3.5s of recycling time, Tr) and a 90° pulse of 10.50 μs was used for acquisition of each of the spectra. The WET method containing selective pulses was applied on the strong water resonance (M o, H. & Raftery, D. J. Biomol. NMR 2008 41:105-111). Waltz16 ^2H-decoupling sequence consists of 90° pulse of 250 μs with decoupling power of 1.72watts, producing B, of 1 kHz during the acquisition period. 13,157 complex data points were acquired with the spectral width of 11 ppm. 128 scans were used to acquire each spectrum. 4 dummy scans were also used for equilibration of the spin states prior to acquisition. A modified T1 inversion recovery pulse sequence with ^2H-decoupling on during the acquisition was used to measure the T1 of the lactate isotopomers and pyrazine standard. Relaxation delay (d1) of 50s and inversion recovery delays (T) of 0.001, 0.6, 0.9, 1.5, 2.0, 3.0, 6.0, 9.0, 14.0, 20.0, 30.0 and 40.0s were used to determine the T1 of lactate isotopomers.
(§4) The deuterium lock channel was used to acquire the ^1H-decoupled ^2H-NMR spectrum at 92.13 MHz resonant frequency. Relaxation delay (d1) of 2s and acquisition time (AQ) of 1s (3s of recycling time, Tr) with a 90° pulse was used to acquire each of the ^2H-NMR spectra. 1086 complex data points were digitized with the spectral width of 11 ppm using 1024 scans for each of the 5 FIDs (5120 scans) for each of the samples. T1 inversion recovery pulse sequence was used to calculate the T1 relaxation times of HDO and pyrazine-D4 standard. Relaxation delay (d1) of 5s, acquisition time (AQ) of 1s and inversion recovery delays (T) of 0.001, 0.1, 0.4, 0.8, 1.6, and 3.2s were used to acquire an array of FIDs to calculate the T1 of HDO and pyrazine-D4. All NMR experiments were carried out at the room temperature (25° C.). ^1H-NMR Data Processing and Quantification of Lactate Isotopomers
(§5) For processing of the ^1H-NMR spectrum, the spectra were zero-filled to 32,768 points with an exponential window function of 0.3 Hz before the Fourier Transform (FT). Manual phase and automatic spline baseline correction were performed on each of the spectra. ^2H-decoupled ^1H-NMR spectra of each time point were used for the extraction of the areas of lactate isotopomers. The MestReNova line fitting tool was used to extract the peak areas of the slightly overlapped signals for quantification of the lactate isotopomers. […]

[1] = tested on: HUH-7 hepatocellular carcinoma cells; assay: as above; assay type: cell-based; conditions: for concentration of consumed [2H7]glucose / produced lactate isotopomers and HDO in cell media: 5.5 mM [2H7]glucose; for number of μmol of 2H: 2H mass balance; for rate of production of lactate isotopomer: efflux into medium, linear regression over incubation time
Experimental: as §1, §2, §3, §4, §5

[2] = T1 inversion recovery NMR of lactate isotopomers, HDO and standards in cell media; assay type: physicochemical; conditions: 25° C., cell medium; for proton T1 relaxation time: 1H-NMR 600.23 MHz, 2H-decoupling on; for deuterium T1 relaxation time: 2H-NMR 92.13 MHz
Experimental: as §3, §4
Once the lactate isotopomers were identified, it would be expected to observe differential changes in T1 due to a loss of ^1H dipolar relaxation. T1 inversion recovery experiments were performed in the ^2H-decoupling on mode to calculate the T1 relaxation time of the pyrazine and lactate isotopomers. […] A and B marks on the uppermost spectrum represent the pyrazine standard and methyl signals of the lactate isotopomers respectively. Integral areas of each of the lactate isotopomers and pyrazine standard were extracted to calculate the T1 relaxation times. Data was fit to the standard T1 equation, Mz(t)=M0(1-2*^T/T1), to extract the T1s. […] T1 relaxation time of the HDO and pyrazine-D4 standard were calculated using the inversion recovery ^2H-NMR data (FIG. 10) and found to be 0.49s and 0.45s respectively.

rat brain = assay: Deuterium MR spectroscopy of rat brain and plasma 2H NMR after tail vein infusion of [2H7]glucose
Source text: All experimental procedures were approved by the University of Florida Institutional Animal Care and Use Committee. Female Sprague Dawley rats (body weight: ˜220 g) were purchased from Jackson Laboratories and acclimatized in the University's animal care facilities. All rats were in the fed state. The rat was anesthetized with 2% isoflurane in a mixture of O2 and N2 gases. The tail vein was catheterized using a 23-gauge needle for the infusion of [^2H7]glucose tracer. The body temperature of the rat was maintained at 37° C. using a heated circulating water pad. The respiratory rate was monitored during the entire period of the experiment. After shimming the magnet, three baseline ^2H spectra were acquired. Subsequently, a 2 minute tail vain infusion of [^2H7]glucose (1.95 g/kg body weight and dissolved in 2.3 mL saline) was administered. Blood was drawn after the end of spectroscopy and imaging experiments via saphenous vein and blood plasma was separated by centrifugation of the blood at 4° C. for 10 minutes. Circulating blood glucose was assessed by a blood draw and glucometer (Evancare, Medline Industries, Northfield, IL) prior to infusion and 3 hours after the glucose injection.
Animal experiments were performed on an 11.1 T Magnex magnet (Magnex Scientific Ltd.) interfaced to a BrukerAvance Ill HD console running on ParaVision 6.0.1 (Bruker Instruments, Billerica, Mass.). The MRI system was equipped with RRI BFG-240/120-S6 gradient coil with the bore size of 120 mm and capable of producing 100 mT/m with 200 μs rise time. A shim map was generated for localized shimming on rat brain using an 85 mm home-built, actively-decoupled, linear volume ^1H transmit-receive coil. The coil was tuned to the ^1H NMR frequency at 470 MHz. A home-built 14 mm diameter, circular surface coil tuned to 72.26 MHz was used to acquire ^2H spectra and images.
The ^2H coil was placed over the rat head and a 3D printed phantom containing approximately 200 μl of natural abundance water was placed on the top of the coil to confirm positioning. The ^2H RF pulse and flip angle were optimized to maximize the ^2H signals from the rat brain. A partial signal contribution from the natural abundance ^2H of the water phantom was unavoidable but was accounted for by subtraction of the signal areas from runs that followed the glucose injection. […] Spectra were acquired with a 1 kHz width and 256 data points for each free induction decay (FID), a repetition time of 300 ms, and a flip angle of 60° with 256 averages. The total acquisition time for each spectrum was 1.28 minutes. A total of 30 spectra were acquired for a 38-minute time period. Two additional ^2H NMR spectra from the rat brain were acquired at 2 hours and 2.5 hours following [^2H7]glucose infusion. Pyrazine-D4 (2.5 mM, internal standard) was added in each plasma sample to calculate the HDO concentration in plasma. ^2H NMR spectra were collected on Bruker 14 T NMR magnet system equipped with a 1.7 mm TCl CryoProbe and Avance Neo console (Bruker BioSpin). ^2H NMR spectra of plasma samples were acquired at 92.13 MHz resonant frequency with an acquisition time of 1.0 s, relaxation delay of 2 s, and 3072 scans.
^2H NMR data analysis was performed using MestReNova v14.0.1-23284 (Mestrelab Research S. L., Santiago, Spain). For processing of the ^2H NMR, each spectrum was Fourier transformed with an exponential window function of 2.0 Hz, zero-filling of 512 data points and automatic phase correction was also applied. Peak areas were extracted for HDO, [^2H7]glucose including the anomeric signal, deuterated glx (glutamate/glutamine) and lactate from the ^2H NMR spectra of the rat brain. 2D ^1H and ^2H images were processed in the ImageJ software (NIH, Bethesda, Md.).

Molecule	concentration of consumed [2H7]glucose / produced lactate isotopomers and HDO in cell media (AML12 cells; 5 hour time point) [µmol/L]	number of μmol of 2H (AML12 cells; 5 hour time point) [µmol]	concentration of consumed [2H7]glucose / produced lactate isotopomers and HDO in cell media ([1]; 5 hour time point) [µmol/L]	number of μmol of 2H ([1]; 5 hour time point) [µmol]	rate of production of lactate isotopomer [1] [micromol/10^6 cells/min]	proton T1 relaxation time [2] [s]	also measured
[2H]CC(O)C(=O)O (stereo not drawn) [Lactate-CH2D]	229.26	229.26	1520.0	1520.0	0.35	2.49	–
[1,2,3,4,5,6,6-^2H7]-D-glucose [[^2H7]glucose, reference compound]	586.52	4105.60	3650.0	25550.0	–	–	Number of μmol of 2H in 2H-lactate & HDO (AML12 cells; 5 hour time point, sum): 2938.52 µmol; [2H7]glucose uptake and HDO and 2H-lactate production compared to HUH-7 (AML12 cells; qualitative): much lower; 2H atoms of [2H7]glucose incorporated into 2H-lactate and HDO ([1]; 2H mass balance at 5 hour time point): Approximately 96%; Number of μmol of 2H in 2H-lactate & HDO ([1]; 5 hour time point, sum): 24644.9 µmol; cellular [2H7]glucose uptake and HDO production rate compared to AML12 cells ([1]; qualitative, stacked 2H-NMR spectra): very high; fate of the glucose bolus in brain (rat brain; rat, in vivo): almost completely metabolized; time of peak delivery of [2H7]glucose into the brain (rat brain; rat, in vivo): approximately 10 minutes post infusion; final blood glucose concentration (rat brain; rat, 3 hours after injection of 1.95 g/kg [2H7]glucose, n=4): 7.1 ± 1.8 mM
CC(O)C(=O)O (stereo not drawn) [lactate-CH3]	–	–	–	–	0.17	1.85	–
[2H]C([2H])C(O)C(=O)O (stereo not drawn) [Lactate-CHD2]	353.07	706.14	2442.47	4884.9	0.57	4.21	concentration of lactate-CHD2 relative to the -CH2D isotopomer ([1]; 5 hour time point): 1.6 fold
[2H]O [HDO, hydrogen-deuterium oxide]	2003.12	2003.12	18240.0	18240.0	–	–	deuterium T1 relaxation time [2]: 0.49 s; final body water HDO enrichment (rat brain; rat blood plasma at end of experiment, n=4): 86.9 ± 5.16 mM; final estimated HDO concentration in brain (rat brain; rat brain, longer time points (2.5 hrs) post-[2H7]glucose infusion, N=3): approximately 48±10 mM; final HDO signal relative to natural abundance signal (rat brain; rat brain, longer time points post-infusion): approximately 3.5 ×; time range of pseudo-steady state of HDO (and HDO plus lactate) to glx ratios (rat brain; rat brain, post-[2H7]glucose infusion): 10 to 24 min; body water enrichment of HDO relative to brain concentration (rat brain; rat, final time point): approximately 1.8 ×
[2H]c1nc([2H])c([2H])nc1[2H] [pyrazine-D4, Pyrazine-D4, reference compound]	–	–	–	–	–	–	deuterium T1 relaxation time [2]: 0.45 s
c1cnccn1 [pyrazine, Pyrazine, reference compound]	–	–	–	–	–	6.45	–

Reference: patent US20230126411A1, “DEUTERIUM MAGNETIC RESONANCE IMAGING” (University of Florida Research Foundation, Inc., priority 2020, published 2023)
